Data reported in US10758534B2 (Vertex Pharmaceuticals Incorporated, priority 2014, dated 2020).

What follows are compounds tested against T1, F508del (Homo sapiens, UniProt P13569, DEL508-508) (assay: Protocol 2: FRET membrane potential optical assay (VIPR), identification of correction compounds). Details: Table 3; compounds of Table 1 as modulators of CFTR activity; protocol not stated.
T1 construct: expressed in transfected cells
Type: cell-based
Summary of the method: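 Single-addition HTS format: F508del-expressing NIH3T3 cells pre-incubated 16 hrs at 37° C. ± compound, with 27° C. culture as positive control. Channel activation by forskolin 10 μM and genistein 20 μM upon switch to gluconate bath, pH 7.4; read-out is FRET-based depolarization signal.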

T1 sequence (P13569 with tags, fused parts or gaps DEL508-508): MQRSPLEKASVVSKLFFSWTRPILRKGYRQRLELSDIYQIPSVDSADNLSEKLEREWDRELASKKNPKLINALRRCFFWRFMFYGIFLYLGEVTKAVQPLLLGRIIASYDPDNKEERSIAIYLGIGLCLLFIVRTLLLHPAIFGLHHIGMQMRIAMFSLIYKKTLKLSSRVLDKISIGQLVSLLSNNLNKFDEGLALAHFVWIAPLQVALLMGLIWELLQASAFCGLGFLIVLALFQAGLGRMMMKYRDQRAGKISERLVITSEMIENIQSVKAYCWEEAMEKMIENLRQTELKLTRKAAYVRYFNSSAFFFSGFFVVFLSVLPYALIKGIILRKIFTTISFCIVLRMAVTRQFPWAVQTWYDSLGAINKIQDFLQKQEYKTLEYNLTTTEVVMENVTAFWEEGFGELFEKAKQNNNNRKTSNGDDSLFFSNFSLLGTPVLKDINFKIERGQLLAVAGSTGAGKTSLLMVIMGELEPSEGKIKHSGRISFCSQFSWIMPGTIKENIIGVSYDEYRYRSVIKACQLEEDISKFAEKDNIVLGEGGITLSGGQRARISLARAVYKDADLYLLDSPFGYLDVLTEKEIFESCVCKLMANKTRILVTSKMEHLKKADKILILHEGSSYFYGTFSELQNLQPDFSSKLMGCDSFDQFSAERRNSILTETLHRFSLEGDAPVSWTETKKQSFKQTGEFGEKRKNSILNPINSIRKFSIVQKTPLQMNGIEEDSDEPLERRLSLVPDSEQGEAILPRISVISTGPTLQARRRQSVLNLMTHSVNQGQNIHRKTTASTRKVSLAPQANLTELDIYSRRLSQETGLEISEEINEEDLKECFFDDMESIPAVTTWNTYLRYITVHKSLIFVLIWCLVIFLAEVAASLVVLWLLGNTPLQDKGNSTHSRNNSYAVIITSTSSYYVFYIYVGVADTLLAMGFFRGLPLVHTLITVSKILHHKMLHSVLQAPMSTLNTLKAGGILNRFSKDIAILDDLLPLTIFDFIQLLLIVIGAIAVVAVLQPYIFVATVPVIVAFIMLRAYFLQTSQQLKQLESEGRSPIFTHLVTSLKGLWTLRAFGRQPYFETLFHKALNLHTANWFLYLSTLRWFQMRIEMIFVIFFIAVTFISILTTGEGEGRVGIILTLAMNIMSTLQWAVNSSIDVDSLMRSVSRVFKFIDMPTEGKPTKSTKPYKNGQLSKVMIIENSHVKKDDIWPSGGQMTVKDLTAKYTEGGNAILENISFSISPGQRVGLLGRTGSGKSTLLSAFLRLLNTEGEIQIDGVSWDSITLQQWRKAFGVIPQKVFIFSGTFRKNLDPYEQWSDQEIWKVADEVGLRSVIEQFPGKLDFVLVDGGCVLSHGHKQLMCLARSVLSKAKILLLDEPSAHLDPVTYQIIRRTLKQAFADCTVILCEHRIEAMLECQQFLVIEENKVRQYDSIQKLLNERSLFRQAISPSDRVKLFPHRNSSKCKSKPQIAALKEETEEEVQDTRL

| SMILES | EC30 |
| --- | --- |
| CC(C)COc1cc(F)cc(-c2ccc(C(=O)NS(=O)(=O)c3cccc(N)n3)c(N3CC4CCC3C4)n2)c1 (centres unmarked) [Compound 680, N-[(6-amino-2-pyridyl)sulfonyl]-2-(3-azabicyclo[2.2.1]heptan-3-yl)-6-(3-fluoro-5-isobutoxy-phenyl)pyridine-3-carboxamide] | +++ (“+++” means <3 uM) |
| CC(C)COc1ccc(F)c(-c2ccc(C(=O)NS(=O)(=O)c3ccn[nH]3)c(N3[C@H](C)CC[C@@H]3C)n2)c1 [Compound 681, 2-[(2S,5R)-2,5-dimethylpyrrolidin-1-yl]-6-(2-fluoro-5-isobutoxy-phenyl)-N-(1H-pyrazol-5-ylsulfonyl)pyridine-3-carboxamide] | +++ (“+++” means <3 uM) |
| COc1cc(F)cc(-c2ccc(C(=O)NS(=O)(=O)c3cccc(N)n3)c(Oc3c(C)cc(C)cc3C)n2)c1 [Compound 682, N-[(6-amino-2-pyridyl)sulfonyl]-6-(3-fluoro-5-methoxy-phenyl)-2-(2,4,6-trimethylphenoxy)pyridine-3-carboxamide] | +++ (“+++” means <3 uM) |
| CC(C)COc1cc(F)cc(-c2ccc(C(=O)NS(=O)(=O)c3cccc(N)n3)c(N(C)C3CCC3)n2)c1 [Compound 683, N-[(6-amino-2-pyridyl)sulfonyl]-2-[cyclobutyl(methyl)amino]-6-(3-fluoro-5-isobutoxy-phenyl)pyridine-3-carboxamide] | +++ (“+++” means <3 uM) |
| CC(C)COc1cc(F)cc(-c2ccc(C(=O)NS(=O)(=O)c3cccc(N)n3)c(N3CCC[C@@H](c4ccccc4)C3)n2)c1 [Compound 684, N-[(6-amino-2-pyridyl)sulfonyl]-6-(3-fluoro-5-isobutoxy-phenyl)-2-[(3S)-3-phenyl-1-piperidyl]pyridine-3-carboxamide] | +++ (“+++” means <3 uM) |
| CC1(C)CCCc2cc(C(=O)NS(=O)(=O)c3cccc(N)c3)c(-c3ccccc3)nc21 [Compound 685, N-(3-aminophenyl)sulfonyl-8,8-dimethyl-2-phenyl-6,7-dihydro-5H-quinoline-3-carboxamide] | +++ (“+++” means <3 uM) |
| Cc1cc(C)c(Oc2nc(-c3cccc(CN4CCCCC4)c3)ccc2C(=O)NS(=O)(=O)c2cccc(N)n2)c(C)c1 [Compound 686, N-[(6-amino-2-pyridyl)sulfonyl]-6-[13-(1-piperidylmethyl)phenyl]-2-(2,4,6-trimethylphenoxy)pyridine-3-carboxamide] | +++ (“+++” means <3 uM) |
| CC(C)Oc1ccc(-c2ccc(C(=O)NS(=O)(=O)c3cccc(N)n3)c(N3[C@@H](C)CC[C@@H]3C)n2)cn1 [Compound 687, N-[(6-amino-2-pyridyl)sulfonyl]-2-[(2S,5S)-2,5-dimethylpyrrolidin-1-yl]-6-(6-isopropoxy-3-pyridyl)pyridine-3-carboxamide] | ++ (“++” means between 3 uM and 10 uM) |
| CC(C)CCOc1cc(F)cc(-c2ccc(C(=O)NS(=O)(=O)c3ccc[nH]c3=O)c(N3[C@H](C)CC[C@@H]3C)n2)c1 [Compound 688, 2-[(2S,5R)-2,5-dimethylpyrrolidin-1-yl]-6-(3-fluoro-5-isopentyloxy-phenyl)-N-[(2-oxo-1H-pyridin-3-yl)sulfonyl]pyridine-3-carboxamide] | +++ (“+++” means <3 uM) |
| CC1CC(C)N(c2nc(-c3ccc(OC(C)C)nc3)ccc2C(=O)NS(=O)(=O)c2cccc(N)n2)C1 (centres unmarked) [Compound 689, N-[(6-amino-2-pyridyl)sulfonyl]-2-(2,4-dimethylpyrrolidin-1-yl)-6-(6-isopropoxy-3-pyridyl)pyridine-3-carboxamide] | +++ (“+++” means <3 uM) |
| Cc1cc(C)c(CN2Cc3ccccc3CCC2C(=O)NS(=O)(=O)c2cccc(N)n2)c(C)c1 (centres unmarked) [Compound 690, N-[(6-amino-2-pyridyl)sulfonyl]-2-[(2,4,6-trimethylphenyl)methyl]-1,3,4,5-tetrahydro-2-benzazepine-3-carboxamide] | ++ (“++” means between 3 uM and 10 uM) |
| Cc1cc(C)c(Oc2nc(-n3cc(C(F)(F)F)cn3)ccc2C(=O)NS(=O)(=O)c2cccc(N)n2)c(C)c1 [Compound 691, N-[(6-amino-2-pyridyl)sulfonyl]-6-[4-(trifluoromethyl)pyrazol-1-yl]-2-(2,4,6-trimethylphenoxy)pyridine-3-carboxamide] | +++ (“+++” means <3 uM) |
| CCCOc1cc(-c2ccc(C(=O)NS(=O)(=O)c3cccc(N)n3)c(N3CCC(C)CC3)n2)ccc1Cl [Compound 692, N-[(6-amino-2-pyridyl)sulfonyl]-6-(4-chloro-3-propoxy-phenyl)-2-(4-methyl-1-piperidyl)pyridine-3-carboxamide] | +++ (“+++” means <3 uM) |
| CC1CN(c2nc(-c3ccc(C(C)C)cc3)ccc2C(=O)NS(=O)(=O)c2cccc(N)n2)C(C)(C)C1 (centres unmarked) [Compound 693, N-[(6-amino-2-pyridyl)sulfonyl]-6-(4-isopropylphenyl)-2-(2,2,4-trimethylpyrrolidin-1-yl)pyridine-3-carboxamide] | +++ (“+++” means <3 uM) |
| CC(C)COc1cc(F)cc(-c2ccc(C(=O)NS(=O)(=O)c3cccc(N)n3)c(N3CCC[C@H]3C)n2)c1 [Compound 694, N-[(6-amino-2-pyridyl)sulfonyl]-6-(3-fluoro-5-isobutoxy-phenyl)-2-[(2R)-2-methylpyrrolidin-1-yl]pyridine-3-carboxamide] | +++ (“+++” means <3 uM) |
| CC(C)COc1cccc(-c2ccc(C(=O)NS(=O)(=O)c3cccc(N)n3)c(N3CC(C)CC3(C)C)n2)c1 (centres unmarked) [Compound 695, N-[(6-amino-2-pyridyl)sulfonyl]-6-(3-isobutoxyphenyl)-2-(2,2,4-trimethylpyrrolidin-1-yl)pyridine-3-carboxamide] | +++ (“+++” means <3 uM) |
| CC(C)COc1cc(F)cc(-c2ccc(C(=O)NS(=O)(=O)c3cccc(N)n3)c(OC3CCCOC3)n2)c1 (centres unmarked) [Compound 706, N-[(6-amino-2-pyridyl)sulfonyl]-6-(3-fluoro-5-isobutoxy-phenyl)-2-tetrahydropyran-3-yloxy-pyridine-3-carboxamide] | +++ (“+++” means <3 uM) |

Results, then the compound that gave them:

| EC30 | SMILES |
| --- | --- |
| +++ (“+++” means <3 uM) | Cc1cc(C)c(CN2CCCc3ccccc3C2C(=O)NS(=O)(=O)c2cccc(N)n2)c(C)c1 (centres unmarked) [Compound 696, N-[(6-amino-2-pyridyl)sulfonyl]-2-[(2,4,6-trimethylphenyl)methyl]-1,3,4,5-tetrahydro-2-benzazepine-1-carboxamide] |
| +++ (“+++” means <3 uM) | Cc1cc(C)c(Oc2nc(-c3cccnc3OCC(F)(F)F)ccc2C(=O)NS(=O)(=O)c2cccc(N)n2)c(C)c1 [Compound 697, N-[(6-amino-2-pyridyl)sulfonyl]-6-[2-(2,2,2-trifluoroethoxy)-3-pyridyl]-2-(2,4,6-trimethylphenoxy)pyridine-3-carboxamide] |
| +++ (“+++” means <3 uM) | CC1CCN(c2nc(-c3cc(F)cc(OC(C)C)c3)ccc2C(=O)NS(=O)(=O)c2nccnc2N)CC1 [Compound 699, N-(3-aminopyrazin-2-yl)sulfonyl-6-(3-fluoro-5-isopropoxy-phenyl)-2-(4-methyl-1-piperidyl)pyridine-3-carboxamide] |
| +++ (“+++” means <3 uM) | COc1ccc(F)cc1-c1ccc(C(=O)NS(=O)(=O)c2cccc(N)n2)c(Oc2c(C)cc(C)cc2C)n1 [Compound 700, N-[(6-amino-2-pyridyl)sulfonyl]-6-(5-fluoro-2-methoxy-phenyl)-2-(2,4,6-trimethylphenoxy)pyridine-3-carboxamide] |
| +++ (“+++” means <3 uM) | CC(C)Oc1cc(-c2ccc(C(=O)NS(=O)(=O)c3ccn[nH]3)c(N3[C@H](C)CC[C@@H]3C)n2)ccc1Cl [Compound 701, 6-(4-chloro-3-isopropoxy-phenyl)-2-[(2S,5R)-2,5-dimethylpyrrolidin-1-yl]-N-(1H-pyrazol-5-ylsulfonyl)pyridine-3-carboxamide] |
| ++ (“++” means between 3 uM and 10 uM) | Cc1ccc(-c2nc(C(C)(C)C)ccc2C(=O)NS(=O)(=O)c2ccc(N)nc2)cc1 [Compound 702, N-[(6-amino-3-pyridyl)sulfonyl]-6-tert-butyl-2-(p-tolyl)pyridine-3-carboxamide] |
| +++ (“+++” means <3 uM) | CC(C)Oc1ccc(-c2ccc(C(=O)NS(=O)(=O)c3cccc(N)n3)c(N3CCCC4(CC4)C3)n2)cn1 [Compound 703, N-[(6-amino-2-pyridyl)sulfonyl]-2-(7-azaspiro[2.5]octan-7-yl)-6-(6-isopropoxy-3-pyridyl)pyridine-3-carboxamide] |
| ++ (“++” means between 3 uM and 10 uM) | C[C@@H]1CC[C@H](C)N1c1nc(C2CCCCC2)ccc1C(=O)NS(=O)(=O)c1cccc(N)n1 [Compound 704, N-[(6-amino-2-pyridyl)sulfonyl]-6-cyclohexyl-2-[(2S,5R)-2,5-dimethylpyrrolidin-1-yl]pyridine-3-carboxamide] |
| +++ (“+++” means <3 uM) | COc1ncc(-c2ccc(C(=O)NS(=O)(=O)c3cccc(N)n3)c(Oc3c(C)cc(C)cc3C)n2)cc1C [Compound 705, N-[(6-amino-2-pyridyl)sulfonyl]-6-(6-methoxy-5-methyl-3-pyridyl)-2-(2,4,6-trimethylphenoxy)pyridine-3-carboxamide] |
| + (“+” means greater than 10 uM) | Cc1ccc(-c2nc3c(cc2C(=O)NS(=O)(=O)c2nccnc2N)CCCC3(C)C)cc1 [Compound 707, N-(3-aminopyrazin-2-yl)sulfonyl-8,8-dimethyl-2-(p-tolyl)-6,7-dihydro-5H-quinoline-3-carboxamide] |
| +++ (“+++” means <3 uM) | CC1CN(c2nc(-c3cccc(OC(C)C)n3)ccc2C(=O)NS(=O)(=O)c2cccc(N)n2)C(C)(C)C1 (centres unmarked) [Compound 708, N-[(6-amino-2-pyridyl)sulfonyl]-6-(6-isopropoxy-2-pyridyl)-2-(2,2,4-trimethylpyrrolidin-1-yl)pyridine-3-carboxamide] |
| +++ (“+++” means <3 uM) | Cc1cc(C)c(Oc2nc(-c3cccc(C(F)(F)F)c3)ccc2C(=O)NS(=O)(=O)c2cccc(N)n2)c(C)c1 [Compound 709, N-[(6-amino-2-pyridyl)sulfonyl]-6-[13-(trifluoromethyl)phenyl]-2-(2,4,6-trimethylphenoxy)pyridine-3-carboxamide] |
